Consider eleven compounds from patent US20220023281A1, “HETEROCYCLIC SPIRO-COMPOUNDS AS AM2 RECEPTOR INHIBITORS” (THE UNIVERSITY OF SHEFFIELD, priority 2018, published 2022).

The experiment concerns the target T1, AM2 receptor-expressing cells (1321N1 cells transfected with CALCRL+RAMP3) (Homo sapiens, UniProt O60896+Q16602).
T1 construct: host or cells: 1321N1 cells
Briefly: AM2 receptor inhibition, LANCE cAMP agonist-antagonist competition assay (AM2 D2 protocol). The experiment is classed as cell-based. The following applies: inhibition of AM induced cAMP in 1321N1 cells expressing CALCRL+RAMP3; read-out: AM2 D2 protocol: pIC50 (converted). Here is the method: Compounds were assessed for their ability to inhibit ligand-induced elevations of cAMP, using the Perkin Elmer LANCE cAMP assay using commercially-available cells expressing a specific receptor of interest using the following general procedure:
Compounds were prepared in dimethyl sulfoxide (DMSO—99.9% pure) (Sigma Aldrich, Cat #: D4540) added to powder stocks to produce a 20 mM solution (100% DMSO) that was sonicated at 37° C. for 10 minutes to fully dissolve the compounds. The 20 mM stocks were diluted further in DMSO to produce a 2 mM solution that was sonicated at 37° C. for 10 minutes. 2 mM stocks were dissolved in assay/stimulation buffer to produce a 400 μM solution that was sonicated at 37° C. for 10 minutes for all cAMP assays. All stocks were stored at −20° C. Then serial dilution (Dilution factor: 10) was performed to achieve the desire experimental concentrations.
Competition assays were performed according to the manufactures instructions using LANCE® TR-FRET cAMP assay kit (Perkin Elmer, Cat #: AD0264). Serial dilutions (3 μl/well) of the molecules were plated in a 384-well OptiPlate (Perkin Elmer, Cat #: 6007299) in duplicates. Appropriate controls (100% stimulation: Forskolin and 0% stimulation: Vehicle control) (6 μl/well) were included in each plate for data normalization. Following the compound addition, 6 μl of G-protein coupled receptor overexpressing cells/Alexa Fluor antibody solution (1:100 dilution) was added in each well at a desired density of 2500 cells/well. The overexpressing cell lines were purchased from DiscoveRx, Birmingham, UK. After spinning the plate at 1000 rpm for 1 minute and vortexing briefly, the cells were pre-incubated with the compounds for 30 minutes at room temperature (covered). Then 3 μl of the equivalent peptide ligand (EC50 dose) was added to all the wells except vehicle and forskolin controls. The plate were then spun down at 1000 rpm for 1 minute and once finished they were vortexed briefly and covered. Cells were stimulated in the presence of the ligands for 15 minutes at room temperature. After stimulation 12 μl of detection mix (Europium-Chelate streptavidin/biotinylated cAMP tracer solution) was added to all wells and incubated for 60 minutes at room temperature. The plate was then read on the Enspire multimode Plate reader (Perkin Elmer), at; 320/340 nm excitation and 615/665 nm emission was recorded.
Assay/Stimulation Buffer (30 mL)—pH 7.4 • 28 mL Hank's Balanced salt solution (+MgCl2, +CaCl2))—(Thermo Fisher Cat #:14170112) • 150 μl HEPES (1M)—(Thermo Fisher Cat #:15630080) • 400 μl Stabilizer (DTPA) Purified BSA (7.5%)—(Perkin Elmer, Cat #: CR84-100) • 60 μl IBMX (250 mM)—(Sigma Aldrich, Cat #: 15879)
The ability of a compound to inhibit the AM induced cAMP activation in AM2 receptor-expressing cells (1321N1 cells transfected with CALCRL+RAMP3, sourced from DiscoverX catalogue number 95-0169C6) was assessed using the protocol above.

T1 sequence (Q16602 23-461): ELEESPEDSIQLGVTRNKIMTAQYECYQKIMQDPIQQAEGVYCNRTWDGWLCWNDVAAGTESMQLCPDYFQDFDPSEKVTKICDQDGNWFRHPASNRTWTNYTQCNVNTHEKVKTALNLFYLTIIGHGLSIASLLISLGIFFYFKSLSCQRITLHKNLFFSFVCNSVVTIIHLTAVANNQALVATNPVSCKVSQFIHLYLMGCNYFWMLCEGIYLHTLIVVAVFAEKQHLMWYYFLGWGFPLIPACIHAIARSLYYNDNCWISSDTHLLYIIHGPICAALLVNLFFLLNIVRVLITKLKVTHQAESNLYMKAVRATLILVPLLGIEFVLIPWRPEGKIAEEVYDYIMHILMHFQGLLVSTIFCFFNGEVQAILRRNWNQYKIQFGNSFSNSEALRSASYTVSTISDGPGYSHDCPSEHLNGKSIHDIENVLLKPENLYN
T1 sequence (O60896 24-148): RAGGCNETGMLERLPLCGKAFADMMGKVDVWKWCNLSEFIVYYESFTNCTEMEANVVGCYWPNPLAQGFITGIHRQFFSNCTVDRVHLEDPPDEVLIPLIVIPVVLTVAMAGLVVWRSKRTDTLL

Turning to `C[C@@H]1CNC[C@@H](N(CC(=O)Nc2ccc3c(c2)C[C@@]2(C3)C(=O)Nc3ncccc32)C(=O)C(C)(C)C)C1` (relative stereo) [Example 27, N-((3S*,5S*)-5-Methylpiperidin-3-yl)-N-(2-oxo-2-(((R)-2′-oxo-1,1′,2′,3-tetrahydrospiro[indene-2,3′-pyrrolo[2,3-b]pyridin]-5-yl)amino)ethyl)pivalamide], the IC50 was 51.3 nM.

In the case of `CC1(C(=O)N(CC(=O)Nc2ccc3c(c2)C[C@@]2(C3)C(=O)Nc3ncccc32)[C@H]2CCCNC2)CCN(C(=O)N2CCCC2)CC1` [Example 21, 4-Methyl-N-(2-oxo-2-(((R)-2′-oxo-1,1′,2′,3-tetrahydrospiro[indene-2,3′-pyrrolo[2,3-b]pyridin]-5-yl)amino)ethyl)-N—((S)-piperidin-3-yl)-1-(pyrrolidine-1-carbonyl)piperidine-4-carboxamide], the IC50 was 27.5 nM.

For the compound `CCC1(C(=O)N(CC(=O)Nc2ccc3c(c2)C[C@@]2(C3)C(=O)Nc3ncccc32)[C@H]2CCCNC2)CCOCC1` [Example 14, 4-Ethyl-N-(2-oxo-2-(((R)-2′-oxo-1,1′,2′,3-tetrahydrospiro[indene-2,3′-pyrrolo[2,3-b]pyridin]-5-yl)amino)ethyl)-N—((S)-piperidin-3-yl)tetrahydro-2H-pyran-4-carboxamide], the IC50 is 288 nM.

As to `CC1(C(=O)N(CC(=O)Nc2ccc3c(c2)C[C@@]2(C3)C(=O)Nc3ncccc32)[C@H]2CCCNC2)CCC1` [Example 8, 1-Methyl-N-(2-oxo-2-(((R)-2′-oxo-1,1′,2′,3-tetrahydrospiro[indene-2,3′-pyrrolo[2,3-b]pyridin]-5-yl)amino)ethyl)-N—((S)-piperidin-3-yl)cyclobutanecarboxamide], the IC50 is 145 nM.

In the case of `CC1(C(=O)N(CC(=O)Nc2ccc3c(c2)C[C@@]2(C3)C(=O)Nc3ncccc32)[C@H]2CCCNC2)CCN(C(=O)CN2CCNCC2)CC1` [Example 18, 4-Methyl-N-(2-oxo-2-(((R)-2′-oxo-1,1′,2′,3-tetrahydrospiro[indene-2,3′-pyrrolo[2,3-b]pyridin]-5-yl)amino)ethyl)-1-(2-(piperazin-1-yl)acetyl)-N—((S)-piperidin-3-yl)piperidine-4-carboxamide], the IC50 was 67.6 nM.

For the compound `C[C@H]1CC[C@H](N(CC(=O)Nc2ccc3c(c2)C[C@@]2(C3)C(=O)Nc3ncccc32)C(=O)C(C)(C)C)CN1` (relative stereo) [Example 28, N-((3S*,6S*)-6-Methylpiperidin-3-yl)-N-(2-oxo-2-(((R)-2′-oxo-1,1′,2′,3-tetrahydrospiro[indene-3′-pyrrolo[2,3-b]pyridin]-5-yl)amino)ethyl)pivalamide], the IC50 is 186 nM.

As for `CC(C)(C)C(=O)N(CC(=O)Nc1ccc2c(c1)CC1(C2)C(=O)Nc2ncccc21)[C@H]1CCNC1` (stereo partly drawn) [Example 24, N-(2-Oxo-2-((2′-oxo-1,1′,2′,3-tetrahydrospiro[indene-2,3′-pyrrolo[2,3-b]pyridin]-5-yl)amino)ethyl)-N—((S)-pyrrolidin-3-yl)pivalamide], the IC50 was 132 nM.

Take `O=C(CN(C(=O)C1CCCC1)[C@H]1CCCNC1)Nc1ccc2c(c1)C[C@@]1(C2)C(=O)Nc2ncccc21` [Example 5, N-(2-Oxo-2-(((R)-2′-oxo-1,1′,2′,3-tetrahydrospiro[indene-2,3′-pyrrolo[2,3-b]pyridin]-5-yl)amino)ethyl)-N—((S)-piperidin-3-yl)cyclopentanecarboxamide]: the IC50 was 170 nM.

With `O=C(CN(C(=O)C1(C(F)(F)F)CCC1)[C@H]1CCCNC1)Nc1ccc2c(c1)C[C@@]1(C2)C(=O)Nc2ncccc21` [Example 12, N-(2-Oxo-2-(((R)-2′-oxo-1,1′,2′,3-tetrahydrospiro[indene-2,3′-pyrrolo[2,3-b]pyridin]-5-yl)amino)ethyl)-N—((S)-piperidin-3-yl)-1-(trifluoromethyl)cyclobutanecarboxamide], the IC50 was 263 nM.

For the compound `CC(C)(F)C(=O)N(CC(=O)Nc1ccc2c(c1)C[C@@]1(C2)C(=O)Nc2ncccc21)[C@H]1CCCNC1` [Example 6, 2-Fluoro-2-methyl-N-[2-oxo-2-[[(3R)-2-oxospiro[1H-pyrrolo[2,3-b]pyridine-3,2′-indane]-5′-yl]amino]ethyl]-N-[(3S)-3-piperidyl]propanamide], the IC50 was 8320 nM.

Turning to `CC(=O)N1CCC(C)(C(=O)N(CC(=O)Nc2ccc3c(c2)C[C@@]2(C3)C(=O)Nc3ncccc32)[C@H]2CCCNC2)CC1` [Example 16, 1-Acetyl-4-methyl-N-(2-oxo-2-(((R)-2′-oxo-1,1′,2′,3-tetrahydrospiro[indene-2,3′-pyrrolo[2,3-b]pyridin]-5-yl)amino)ethyl)-N—((S)-piperidin-3-yl)piperidine-4-carboxamide], the IC50 was 112 nM.
